# Assay results from publication PMC5814047, “Peptidic inhibitors of insulin-degrading enzyme with potential for dermatological applications discovered via phage display” (PLoS ONE, 2018).
# “And” between values parts separate entries of the source, which are not always exact repeats. Identical values can stand only once. Like-named read-outs stand apart in the source and are kept apart here. Bridge positions count the residues as written; N and C are the ends. Peptide text beside a SMILES is read from it.
# Assays:
# [1] = tested on: COL1A1 mRNA in primary murine skin fibroblasts; assay: COL1A1 mRNA quantification by RT-PCR; type: cell-based
# Protocol: Insulin promotes wound healing and overall skin health by affecting a number of processes, including cell proliferation, cell migration, and the production and secretion of ECM components, particularly type I collagen. We therefore assessed the ability of P12-3A to influence these processes in cultured skin fibroblasts and keratinocytes. To that end, primary mouse skin fibroblasts were grown for 4 d in multiple concentrations of insulin in the presence or absence of P12-3A, and insulin concentration over time was monitored by ELISA. […] Finally, the effects of P12-3A on collagen production in were assessed at both the transcriptional and the posttranslational level in confluent monolayers of fibroblasts. After 4 d of treatment with P12-3A (100 μM), mRNA levels for the major form of collagen, alpha-1 type I collagen (COL1A1), were quantified by RT-PCR and found to be increased to ~2.6 times the levels of untreated cells (Fig 4C). To assess overall levels of collagen production and secretion, we quantified levels of hydroxyproline, a modified amino acid present almost exclusively in collagen proteins. […] Western blotting also confirmed that mature, cell-associated collagen levels were increased in the presence of P12-3A (Fig 4E).
# Fig 4 Effects of P12-3A on cultured skin cells. A, Insulin concentrations as a function of time in logarithmically growing primary murine skin fibroblasts in the absence or presence of P12-3A (100 μM). […] Data are mean ± SEM of 4 independent replications. *P<0.05, **P<0.01. B, Proliferation of cells in the absence or presence of P12-3A (100 μM). Data are mean ± SEM of 6 independent replications. […] C,D,E, P12-3A (100 μM) potentiates insulin-induced collagen production in skin fibroblasts. Collagen production was assessed by COL1A1 mRNA levels (C), levels of hydroxyproline secreted into the medium (D), and cell-associated mature alpha-1 type I collagen levels detected by Western blotting (E). Data are mean ± SD of 4 independent replications. *P<0.05, **P<0.01. […] Migration of HaCaT cells 48 h after induction of a scratch wound in the presence of the indicated quantities of insulin and/or P12-3A (100 μM). Data are mean ± SEM of 6 independent replications. *P<0.05, **P<0.01.
# RNA was extracted from freshly lysed cells, reverse transcribed and amplified using the Ambion® Fast SYBR® Green Cells-to-CT™ Kit according to manufacturer’s recommendations (Thermo Fisher Scientific, Waltham, MA, USA). The quantitative real-time PCR reaction was conducted using a 7500 real-time PCR system and analyzed using System SDS software v2.0.5 (Applied Biosystems). Murine COL1A1 mRNA was detected using the following primers (forward: 5’-[…] and reverse: 5’ […]). Fold change differences between samples were determined using the comparative Ct (ΔΔCt) method, normalized to internal standards detected with the SYBR® Green Cells-to-CT™ Control Kit according to manufacturer’s recommendations (Thermo Fisher Scientific, Waltham, MA, USA) calculated by 2^-ΔΔCt.
# [2] = biological target: T1, MMP-7 (Homo sapiens, UniProt P09237); assay: MMP Inhibitor Profiling Kit, MMP-7; type: biochemical; settings: P12-3A 100 μM
# T1 construct: purchased Enzo Life Sciences, Inc
# T1 sequence (P09237 95-267): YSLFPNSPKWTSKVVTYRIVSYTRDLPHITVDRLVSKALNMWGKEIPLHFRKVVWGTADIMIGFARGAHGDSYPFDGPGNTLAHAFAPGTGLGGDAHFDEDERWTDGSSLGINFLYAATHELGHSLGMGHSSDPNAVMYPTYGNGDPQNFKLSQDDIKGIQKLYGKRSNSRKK
# Protocol: IDE activity was quantified by monitoring the degradation of Mca-[…](Dnp) (FRET1, 5 μM), fluoresceinated and biotinylated amyloid ß-protein (FAßB; 500 nM) or recombinant human insulin (50 nM) in PBS supplemented with 0.05% BSA. FRET1 degradation was measured by changes in fluorescence (λex = 340 nm, λem = 420 nm); FAßB degradation was monitored by fluorescence polarization (λex = 488 nm, λem = 525 nm), as described; and insulin degradation was quantified by ELISA. In vitro activity assays incorporated recombinant human IDE (1 nM) purified from bacteria. For quantitation of insulin degradation in primary murine skin fibroblasts, cells (1 x 10^5/well) were plated in 96-well plates and maintained in DMEM supplemented with 10% fetal bovine serum (FBS), 2mM glutamine, penicillin and streptomycin. After addition of insulin (10 nM or 100 nM), samples of conditioned medium were removed daily and quickly frozen, then insulin levels were quantified in parallel by ELISA according to manufacturer’s recommendations (Crystal Chem, Downers Grove, IL, USA). Assessment of the activity of P12-3A against a variety of matrix-metalloproteases was conducted using the Matrix Metalloproteinase (MMP) Inhibitor Profiling Kit, Fluorometric RED (Enzo Life Sciences, Inc., Farmingdale, NY, USA) according to manufacturer’s recommendations using the broad-spectrum MMP inhibitor, NNGH, as a positive control. […]
# [3] = tested on: multiple peptidases of different protease classes; assay: Activity on additional proteases, FAßB degradation assay; type: biochemical; parameters: concentration or dose not given beside the values; settings: for % activity relative to DMSO-only and no-enzyme controls, Mean: N 8; for % activity relative to DMSO-only and no-enzyme controls, single runs: each run mean of quadruplicates
# Protocol: IDE activity was quantified by monitoring the degradation of Mca-[…](Dnp) (FRET1, 5 μM), fluoresceinated and biotinylated amyloid ß-protein (FAßB; 500 nM) or recombinant human insulin (50 nM) in PBS supplemented with 0.05% BSA. FRET1 degradation was measured by changes in fluorescence (λex = 340 nm, λem = 420 nm); FAßB degradation was monitored by fluorescence polarization (λex = 488 nm, λem = 525 nm), as described; and insulin degradation was quantified by ELISA. In vitro activity assays incorporated recombinant human IDE (1 nM) purified from bacteria. For quantitation of insulin degradation in primary murine skin fibroblasts, cells (1 x 10^5/well) were plated in 96-well plates and maintained in DMEM supplemented with 10% fetal bovine serum (FBS), 2mM glutamine, penicillin and streptomycin. After addition of insulin (10 nM or 100 nM), samples of conditioned medium were removed daily and quickly frozen, then insulin levels were quantified in parallel by ELISA according to manufacturer’s recommendations (Crystal Chem, Downers Grove, IL, USA). Assessment of the activity of P12-3A against a variety of matrix-metalloproteases was conducted using the Matrix Metalloproteinase (MMP) Inhibitor Profiling Kit, Fluorometric RED (Enzo Life Sciences, Inc., Farmingdale, NY, USA) according to manufacturer’s recommendations using the broad-spectrum MMP inhibitor, NNGH, as a positive control.
# Supplementary file pone.0193101.s004.tif: S4 Fig Selectivity of P12-3A for IDE vis-à-vis other proteases. Activity of P12-3A (100 μM) against (A) multiple matrix-metalloproteases (MMPs) and (B) multiple peptidases of different protease classes. […] Data are mean ± SD, n = 8–16 per group. P<0.05 by 2-tailed Student’s t-test. […] See Materials and Methods for details. NEP, neprilysin; mCatD, murine cathepsin D; hCatD, human cathepsin D. (TIF) Click here for additional data file.
# [4] = Solubility in assay medium and cell culture medium; type: physicochemical; settings: cosmetic-grade P12-3A, read-out: soluble up to
# [5] = P12-3A 100 uM, individual replicates
compound,measurement,setting,value
CC(C)C[C@H](NC(=O)[C@H](CO)NC(=O)[C@@H](N)CCC(N)=O)C(=O)N1CCC[C@H]1C(=O)N[C@@H](Cc1c[nH]c2ccccc12)C(=O)N[C@H]1CSSC[C@@H](C(=O)N[C@H](C(=O)N[C@H](C(N)=O)[C@@H](C)O)C(C)C)NC(=O)[C@H](Cc2c[nH]cn2)NC(=O)[C@@H]2CCCN2C(=O)[C@H](Cc2ccc(O)cc2)NC1=O [P12-3A] (H-QSLPWCYPHCVT-NH2; disulfide 6-10 (inferred)),COL1A1 mRNA levels,"[1]; 100 μM P12-3A, 4 d, confluent monolayers",~ 2.6 times the levels of untreated cells
same,"2^(-DCt), COL1A1 mRNA, Mean","[1]; P12-3A 100 uM, N 4",0.490
same,"DCt (COL1A1 mRNA vs internal standard ß-actin), Mean","[1]; P12-3A 100 uM, N 4",1.082
same,"2^(-DCt), COL1A1 mRNA",[1]; [5],0.454 and 0.570 and 0.306 and 0.629
same,DCt (COL1A1 mRNA vs internal standard ß-actin),[1]; [5],1.14 and 0.81 and 1.71 and 0.67
same,"COL1A1 mRNA, normalized, Mean","[1]; P12-3A 100 uM, normalized to control mean (1.000), N 4",2.644
same,"COL1A1 mRNA, normalized","[1]; P12-3A 100 uM, normalized to control mean (1.000), individual replicates",2.451 and 3.081 and 1.651 and 3.395
same,"Ct, COL1A1 mRNA, Mean","[1]; P12-3A 100 uM, raw Ct, N 4",21.783
same,"Ct, COL1A1 mRNA","[1]; P12-3A 100 uM, raw Ct, individual replicates",22.07 and 21.23 and 21.93 and 21.9
same,inhibition at 100 µM,[2],~18%
same,"% activity relative to DMSO-only and no-enzyme controls, Mean",[3]; Plasmin,102.2%
same,"% activity relative to DMSO-only and no-enzyme controls, single runs",[3]; Plasmin,81.4012% and 90.4633% and 101.45% and 148.471% and 93.7572% and 91.0067% and 95.3568% and 115.381%
same,"% activity relative to DMSO-only and no-enzyme controls, Mean",[3]; Trypsin,97.0%
same,"% activity relative to DMSO-only and no-enzyme controls, single runs",[3]; Trypsin,89.0897% and 97.7425% and 98.0394% and 101.611% and 90.6127% and 100.837% and 98.0681% and 99.896%
same,solubility,[4]; assay medium (PBS/0.05%BSA),~500 µM
same,solubility,[4]; cell culture medium,~100 µM
